Assay results taken from patent US20230115907A1, “HETEROCYCLIC COMPOUND AND PHARMACEUTICAL COMPOSITION, PREPARATION METHOD, INTERMEDIATE AND USE THEREOF” (EVOPOINT BIOSCIENCES CO., LTD., priority 2019, published 2023).

How the values were obtained:
HCC70 cells = experiment: Inhibition of cell proliferation, CellTiter-Glo, HCC70; type: cell-based; settings: Homo sapiens, HCC70, 72 h, Efficacy Example 2 (Table 2), 72 h incubation
Protocol: (§1) The compounds were each prepared with 100% DMSO into 10 mM mother liquor.
(§2) HCC70 cells and OVCAR3 cells were digested and counted. Cells were diluted to an appropriate concentration according to cell density. 100 μL of cells were added to each well of a 96-well plate. Medium wells served as blank control (Min). The cells were incubated overnight in an incubator at 37° C./5% CO2.
(§3) A 200-fold stock solution of a compound was prepared with DMSO, and the compound was diluted with growth medium to a 3-fold stock solution, i.e., […] of each of 200-fold stock solutions of compound at different concentrations was added to 197 μL of medium. 50 μL of diluted compound was added to each well and the mixture was incubated at 37° C./5% CO2 for 72 h.
(§4) The 96-well plate was equilibrated to room temperature before detection. 40 μL of CellTiter-Glo solution was added to each well. The mixture was mixed for 2 min using a horizontal shaker to induce cell lysis. The mixture was incubated at room temperature for 60 min to stabilize […] signals. Fluorescence values were read on ENVISION.
(§5) (1) Data was analyzed by GraphPad Prism 5
(§6) (2) % inhibition rate=(maximum signal−compound signal)/(maximum signal−minimum signal)×100
(§7) (3) Maximum signal: signal of DMSO well
(§8) (4) Minimum signal: signal of medium well
(§9) The effect of SZ-015200, SZ-015256 and SZ-015268 on cell proliferation after incubation with HCC70, OVCAR-3, HCT116 and HCC1806 cells for 3 days was detected according to the method described in Efficacy Example 2, and the results are shown in Table 3.

OVCAR3 cells = experiment: Inhibition of cell proliferation, CellTiter-Glo, OVCAR3; type: cell-based; settings: Homo sapiens, OVCAR-3, 72 h, Efficacy Example 2 (Table 2), 72 h incubation
Protocol: as §1, §2, §3, §4, §5, §6, §7, §8, §9

IC50 (OVCAR3 cells) | Structure (SMILES) | IC50 (HCC70 cells)
467 nM | CC(C)c1cnn2c(NCc3ccccc3)cc(NC[C@H]3CCNC[C@@H]3O)nc12 [CT7001, reference compound] | 310 nM
234 nM | Cc1nc(NC2CCN(C(=O)O[C@H]3CCN(C(=O)/C=C/CN(C)C)C3)CC2)c2ncn(C(C)C)c2n1 [SZ-015264, (S,E)-1-(4-(dimethylamino)but-2-enoyl)pyrrolidin-3-yl 4-((9-isopropyl-2-methyl-9H-purin-6-yl)amino)piperidine-1-carboxylate] | 181 nM
92.1 nM | Cc1nc(NC2CCN(C(=O)O[C@@H]3CCN(C(=O)/C=C/CN(C)C)C3)CC2)n2ncc(C(C)C)c2n1 [SZ-015282, (R,E)-1-(4-(dimethylamino)but-2-enoyl)pyrrolidin-3-yl 4-((8-isopropyl-2-methylpyrazolo[1,5-a][1,3,5]triazin-4-yl)amino)piperidine-1-carboxylate] | 82.4 nM
– | CC#CC(=O)N1CC[C@@H](OC(=O)N2CCC(Nc3cc(C)nc4c3ncn4C(C)C)CC2)C1 [SZ-015284, (R)-1-(but-2-ynoyl)tetrahydropyrrol-3-yl 4-((3-isopropyl-5-methyl-3H-imidazo[4,5-b]pyridin-7-yl)amino)piperidine-1-carboxylate] | 97.4 nM
620 nM | CCn1cnc2c(NC3CCN(C(=O)O[C@H]4CCN(C(=O)/C=C/CN(C)C)C4)CC3)ccnc21 [SZ-015285, (S,E)-1-(4-(dimethylamino)but-2-enoyl)pyrrolidin-3-yl 4-((3-ethyl-3H-imidazo[4,5-b]pyridin-7-yl)amino)piperidine-1-carboxylate] | 1050 nM
167 nM | CC(C)n1cnc2c(NC3CCN(C(=O)O[C@H]4CCN(C(=O)/C=C/CN(C)C)C4)CC3)ccnc21 [SZ-015286, (S,E)-1-(4-(dimethylamino)but-2-enoyl)pyrrolidin-3-yl 4-((3-isopropyl-3H-imidazo[4,5-b]pyridin-7-yl)amino)piperidine-1-carboxylate] | 570 nM
– | CC#CC(=O)N1CC[C@H](OC(=O)N2CCC(Nc3cc(C)nc4c3ncn4C(C)C)CC2)C1 [SZ-015289, (S)-1-(but-2-ynoyl)tetrahydropyrrol-3-yl 4-((3-isopropyl-5-methyl-3H-imidazo[4,5-b]pyridin-7-yl)amino)piperidine-1-carboxylate] | 117 nM
72.1 nM | CC#CC(=O)N1CC[C@H](OC(=O)N2CCC(Nc3nc(C)nc4c(C(C)C)cnn34)CC2)C1 [SZ-015294, (S)-1-(but-2-ynoyl)pyrrolidin-3-yl 4-((8-isopropyl-2-methylpyrazolo[1,5-a][1,3,5]triazin-4-yl)amino)piperidine-1-carboxylate] | 50.2 nM
62.8 nM | CC[C@H](CO)Nc1nc(NC2CCN(C(=O)O[C@H]3CCN(C(=O)/C=C/CN(C)C)C3)CC2)c2ncn(C(C)C)c2n1 [SZ-015295, (S)-1-((E)-4-(dimethylamino)but-2-enoyl)pyrrolidin-3-yl 4-((2-(((R)-1-hydroxybutan-2-yl)amino)-9-isopropyl-9H-purin-6-yl)amino)piperidine-1-carboxylate] | 110 nM
168 nM | CC(C)n1cnc2c(NC3CCN(C(=O)O[C@H]4CCN(C(=O)/C=C/CN(C)C)C4)CC3)nc(CO)nc21 [SZ-015297, (S,E)-1-(4-(dimethylamino)but-2-enoyl)pyrrolidin-3-yl-4-((2-(hydroxymethyl)-9-isopropyl-9H-purin-6-yl)amino)piperidine-1-carboxylate] | 252 nM
– | CC(C)n1cnc2c(NC3CCN(C(=O)O[C@H]4CCN(C(=O)/C=C/CN(C)C)C4)CC3)nc(-c3cn[nH]c3)nc21 [SZ-015298, (S,E)-1-(4-(dimethylamino)but-2-enoyl)pyrrolidin-3-yl 4-((9-isopropyl-2-(1H-pyrazol-4-yl)-9H-purin-6-yl)amino)piperidine-1-carboxylate] | 405 nM
114 nM | CC(C)Nc1cc(NC2CCN(C(=O)O[C@H]3CCN(C(=O)/C=C/CN(C)C)C3)CC2)c2ncn(C(C)C)c2n1 [SZ-015303, (S,E)-1-(4-(dimethylamino)but-2-enoyl)pyrrolidin-3-yl 4-((3-isopropyl-5-(isopropylamino)-3H-imidazo[4,5-b]pyridin-7-yl)amino)piperidine-1-carboxylate] | 129 nM
281 nM | CC[C@H](CO)Nc1cc(NC2CCN(C(=O)O[C@H]3CCN(C(=O)/C=C/CN(C)C)C3)CC2)c2ncn(C(C)C)c2n1 [SZ-015306, (S)-1-((E)-4-(dimethylamino)but-2-enoyl)pyrrolidin-3-yl 4-((5-(((R)-1-hydroxybutan-2-yl)amino)-3-isopropyl-3H-imidazo[4,5-b]pyridin-7-yl)amino)piperidine-1-carboxylate] | 205 nM
139 nM | Cc1cc(NC2CCN(C(=O)OC3CN(C(=O)/C=C/CN(C)C)C3)CC2)c2ncn(C(C)C)c2n1 [SZ-015307, (E)-1-(4-(dimethylamino)but-2-enoyl)azetidin-3-yl 4-((3-isopropyl-5-methyl-3H-imidazo[4,5-b]pyridin-7-yl)amino)piperidine-1-carboxylate] | 78 nM
– | Cc1nc(NC2CCN(C(=O)OC3CN(C(=O)/C=C/CN(C)C)C3)CC2)c2ncn(C(C)C)c2n1 [SZ-015308, (E)-1-(4-(dimethylamino)but-2-enoyl)azetidin-3-yl 4-((9-isopropyl-2-methyl-9H-purin-6-yl)amino)piperidine-1-carboxylate] | 92.1 nM
58.4 nM | CCc1nc(NC2CCN(C(=O)O[C@H]3CCN(C(=O)/C=C/CN(C)C)C3)CC2)c2ncn(C(C)C)c2n1 [SZ-015310, (S,E)-1-(4-(dimethylamino)but-2-enoyl)pyrrolidin-3-yl 4-((2-ethyl-9-isopropyl-9H-purin-6-yl)amino)piperidine-1-carboxylate] | 29.5 nM
99.6 nM | COCCNc1cc(NC2CCN(C(=O)O[C@H]3CCN(C(=O)/C=C/CN(C)C)C3)CC2)c2ncn(C(C)C)c2n1 [SZ-015311, (S,E)-1-(4-(dimethylamino)but-2-enoyl)pyrrolidin-3-yl 4-((3-isopropyl-5-((2-methoxyethyl)amino)-3H-imidazo[4,5-b]pyridin-7-yl)amino)piperidine-1-carboxylate] | 95 nM
429 nM | CC[C@H](CO)Nc1cc(NC2CCN(C(=O)O[C@H]3CCN(C(=O)/C=C/CN(C)C)C3)CC2)c2ncc(C(C)C)n2n1 [SZ-015317, (S)-1-((E)-4-(dimethylamino)but-2-enoyl)pyrrolidin-3-yl 4-((6-(((R)-1-hydroxybutan-2-yl)amino)-3-isopropylimidazo[1,2-b]pyridazin-8-yl)amino) piperidine-1-carboxylate] | 237 nM
72.5 nM | CC(C)c1cc(NC2CCN(C(=O)O[C@H]3CCN(C(=O)/C=C/CN(C)C)C3)CC2)c2ncn(C(C)C)c2n1 [SZ-015319, (S,E)-1-(4-(dimethylamino)but-2-enoyl)pyrrolidin-3-yl 4-((3,5-diisopropyl-3H-imidazo[4,5-b]pyridin-7-yl)amino)piperidine-1-carboxylate] | 50.5 nM
33.2 nM | CC[C@H](CO)Nc1nc(NC2CCN(C(=O)O[C@H]3CCN(C(=O)/C=C/CN(C)C)C3)CC2)n2ncc(C(C)C)c2n1 [SZ-015326, (S)-1-((E)-4-(dimethylamino)but-2-enoyl)pyrrolidin-3-yl 4-((2-(((R)-1-hydroxybutan-2-yl)amino)-8-isopropylpyrazolo[1,5-a][1,3,5]triazin-4-yl)amino)piperidine-1-carboxylate] | 50.3 nM
110 nM | CC(C)Nc1nc(NC2CCN(C(=O)O[C@H]3CCN(C(=O)/C=C/CN(C)C)C3)CC2)c2ncc(C(C)C)n2n1 [SZ-015328, (S,E)-1-(4-(dimethylamino)but-2-enoyl)pyrrolidin-3-yl 4-((7-isopropyl-2-(isopropylamino)imidazo[2,1-f][1,2,4]triazin-4-yl)amino)piperidine-1-carboxylate] | 252 nM
44 nM | CC(C)Nc1nc(NC2CCN(C(=O)O[C@H]3CCN(C(=O)/C=C/CN(C)C)C3)CC2)n2ncc(C(C)C)c2n1 [SZ-015330, (S,E)-1-(4-(dimethylamino)but-2-enoyl)pyrrolidin-3-yl 4-((8-isopropyl-2-(isopropylamino)pyrazolo[1,5-a][1,3,5]triazin-4-yl)amino)piperidine-1-carboxylate] | 61 nM
36.7 nM | CC(C)c1cnn2c(NC3CCN(C(=O)O[C@H]4CCN(C(=O)/C=C/CN(C)C)C4)CC3)nc(NC3CC3)nc12 [SZ-015331, (S,E)-1-(4-(dimethylamino)but-2-enoyl)pyrrolidin-3-yl 4-((2-(cyclopropylamino)-8-isopropylpyrazolo[1,5-a][1,3,5]triazin-4-yl)amino)piperidine-1-carboxylate] | 70.1 nM
44.7 nM | CC(C)Oc1nc(NC2CCN(C(=O)O[C@H]3CCN(C(=O)/C=C/CN(C)C)C3)CC2)n2ncc(C(C)C)c2n1 [SZ-015332, (S,E)-1-(4-(dimethylamino)but-2-enoyl)pyrrolidin-3-yl 4-((2-isopropoxy-8-isopropylpyrazolo[1,5-a][1,3,5]triazin-4-yl)amino)piperidine-1-carboxylate] | 51.5 nM
